Data published in US20130137706A1, “Antimicrobial Molecules For Treating Multi-Drug Resistant and Extensively Drug Resistant Strains Of Mycobacterium” (POLYMEDIX, INC., priority 2008, published 2013).
Values after ≈ are worked out from the molar mass of the structure shown. Where two headings read alike, the source gives them in different places.

Columns and labels:
[1] = tested on: M. tuberculosis (H37Rv strain); assay: Microplate Alamar Blue Assay (MABA) susceptibility assay in BACTEC 12B medium; type: cell-based; conditions: Mycobacterium tuberculosis
monkey VERO cells = assay: VERO cell cytotoxicity assay (luminescent ATP cell viability, 72 hour exposure); type: cell-based; conditions: Primates
[2] = H37Rv strain, MABA, 90% reduction in fluorescence relative to controls, read-out: IC90 M. tuberculosis (H37Rv strain)
[3] = Table 1, H37Rv strain, read-out: IC90 value (v. M. tuberculosis)
[4] = Vero, summary of Table 1, read-out: EC50 value (v. Monkey VERO Cells)
[5] = VERO cells, 72 hour exposure, ATP luminescence, read-out: EC50 VERO cells

Compound | IC90 [1, 2] | IC90 [1, 3] | EC50 (monkey VERO cells; [4]) | EC50 (monkey VERO cells; [5])
N=C(N)NCCCCC(=O)Nc1cccc(NC(=O)c2cc(C(=O)Nc3cccc(NC(=O)CCCCNC(=N)N)c3SCCN)ncn2)c1SCCN [Compound 3] | 3.6 µg/mL (≈ 4.61 µM) | < 5 µg/mL | > 100 µg/mL | > 100 µg/mL
CC(C)(C)c1cc(N)c(SCCNC(=N)N)c(NC(=O)c2cc(C(=O)Nc3cc(C(C)(C)C)cc(N)c3SCCNC(=N)N)c(OCCNC(=N)N)cc2OCCNC(=N)N)c1 [Compound 2] | 4.5 µg/mL (≈ 5.03 µM) | < 5 µg/mL | > 300 µg/mL | > 300 µg/mL
CC(C)(C)c1cc(N)c(SCCNC(=N)N)c(NC(=O)c2cc(OCCNC(=N)N)cc(C(=O)Nc3cc(C(C)(C)C)cc(N)c3SCCNC(=N)N)c2)c1 [Compound 1] | 2.2 µg/mL (≈ 2.77 µM) | < 5 µg/mL | > 300 µg/mL | > 300 µg/mL
CC(C)(C)c1cc(NC(=O)CCCCNC(=N)N)c(SCCN)c(NC(=O)Nc2cc(C(C)(C)C)cc(NC(=O)CCCCNC(=N)N)c2SCCN)c1 [Compound 4] | 18.4 µg/mL (≈ 23.4 µM) | < 20 µg/mL | > 300 µg/mL | > 300 µg/mL
